The values below come from paper PMC4627230, “Identification of TAX2 peptide as a new unpredicted anti-cancer agent” (Oncotarget, 2015).

Assay [1] has as its system TSP-1 binding to CD36. As to the kind of experiment: Co-immunoprecipitation TSP-1:CD36 in HUVECs. It is filed as cell-based, human. The conditions noted are these: 100 μM, 24 h. As for the experimental part:
(§1) Figure 3 Anti-angiogenic properties of TAX2 are mediated by TSP-1 binding to CD36 A. Expression of CD36 in HUVECs was assessed by immunoblotting (left panel) and immunofluorescence staining (right panel, red). Nuclei were counterstained with DAPI (blue). B. HUVECs were incubated with 100 μM cyclic TAX2 or in control conditions for 24 h. Then, CD36-containing complexes were co-immunoprecipitated from whole cell extracts (non-specific IgGs were used as a negative control for immunoprecipitation). Immunocomplexes were submitted to SDS-PAGE and immunoblotted (IB) by using specific antibodies for TSP-1 and CD36. The presence of TSP-1 in immunocomplexes was quantified by densitometric analysis relative to immunoprecipitated CD36. C. VEGFR2 phosphorylation induced by VEGF in the presence of TAX2. After overnight serum starvation, HUVECs were pre-treated with 100 μM TAX2 or control for 12 h, then incubated with 30 ng/mL VEGF for 5 min. […] Data are expressed as the mean ± SE (n = 3; *p < 0.05, ANOVA). […] Quantification of total tube-like network length was realized using ImageJ software E. Branching points F. and nodal structures G. were numbered using the S.CORE web-based system. Data are expressed as the mean ± SE (n = 3; *p < 0.05, ANOVA). […]

Assay [2] relates to CD36-containing complex / activated VEGFR2. Briefly: CD36 co-immunoprecipitation of activated VEGFR2. The conditions noted are these: HUVECs, 100 μM for 12 h, then 30 ng/mL VEGF 5 min. It is filed as cell-based, human. The procedure:
as §1

Assay [3] deals with B16F1 melanoma tumor in C57BL/6 mice. As to the kind of experiment: Subcutaneous B16F1 melanoma allograft: tumor volume and necrosis. It is filed as in vivo, mouse. The conditions noted are these: 10 mg/kg i.p. days 3, 5, 7. As for the experimental part: For the subcutaneous melanoma tumor model, suspensions of B16F1 cells (2.5 × 10^5 cells in 100 μL RPMI-1640 medium) were subcutaneously injected into the left flank of different randomized series of syngeneic C57BL/6 mice (n = 8–10 per group), as previously described. Intraperitoneal administrations of peptide (10 mg/kg mouse weight) or controls (physiological serum 0.9% (w/v) NaCl or a scrambled peptide) were performed at days 3, 5 and 7. In human pancreatic carcinoma xenograft experiments, 3 × 10^6 MIA PaCa-2 cells/mouse were implanted subcutaneously into the left flank of BALB/C athymic nude mice, then TAX2 intraperitoneal treatments (10 mg/kg mouse weight) were performed 3 times a week during 4 weeks starting at day 10 after tumor cells inoculation. Tumor volume was determined according to v = 0.5 A × B^2, where A denotes the largest dimension of the tumor and B represents the smallest dimension. At days indicated, mice were sacrificed and tumors were surgically extracted and fixed in 4% paraformaldehyde for further morphologic studies and for magnetic resonance imaging, or frozen for immunohistochemistry. Mice were also weighed every 2–3 days and daily checked for any modification in their behavior. Loss of 15% body weight was an indication for euthanasia as well as severe tumor necrosis, as it was sometimes associated with skin ulceration that would result in loss of body fluid and/or infection.
Histological analysis of formaldehyde-fixed and paraffin-embedded tumors were performed on hemalun, phloxin and saffron (HPS) stained 3 μm thick sections prepared using routine histological methods. To assess tumor-associated microvessel density (MVD), CD31 immunostaining was performed on 5 μm thick cryosections using biotin-labeled secondary antibody and streptavidin-HRP AEC detection system (Microm Microtech, Francheville, France), followed by hematein counter-coloration. Negative controls were done omitting the primary antibody. The necrotic part relative to total tumor surface for each tumor slice as well as MVD were quantified using ImageJ software.
Tumors were studied by magnetic resonance imaging (MRI) for visualization of tumor necrosis when the subcutaneous allografts reached a diameter of about 0.8 cm (day 12). […] Image treatment, segmentation, tri-dimensional reconstruction and quantification were performed using ImageJ and Amira 5.4.3 (Visualization Sciences Group, Burlington, MA, USA) software.
Animals were anesthetized by isoflurane (Forene, Abbott France, Rungis, France) inhalation (3% for induction and 1–1.5% for maintenance) and then after placed in a carbon fibers bed. […] Analysis of reconstructed images and quantification of the vascular network were performed using Amira 5.4.3 software.

For “CEVSQLLKGDAC (disulfide) [TAX2, CD47-derived cyclic disulfide dodecapeptide …]”, in assay [1], the “increase of TSP-1 co-immunoprecipitated with CD36” value was 3 fold. Besides, in assay [2], the “association of activated VEGFR2 to a CD36-containing complex” value is “association of activated VEGFR2 to a CD36-containing complex”. In addition, in assay [3], the “large central necrotic area inside tumor masses (MRI and μCT)” value is given as “large central necrotic area inside tumor masses”. For the same sequence, the “median tumor volume, melanoma” value in assay [3] (early stages (day 12, caliper), n = 54) is recorded as “No significant modification”. Further, the “increase of necrotic area vs control (HPS staining)” value in assay [3] (p < 0.05) is on record as “about 3 fold”. Also, the “tumor necrosis at day 20” value in assay [3] (photographs) was “substantial tumor necrosis”.
